Test results: ChEMBL document CHEMBL1201862, “PubChem BioAssay data set” (2004)
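Cultured in 96-well plates, cells were exposed to test compound for 48 hours across five concentrations. The concentration for 50% growth inhibition is given as GI50.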 Active and inactive are the calls of the source. Cut-off read from the data, not from the text of the source: active = GI50 up to about 1.1 µM and inactive = higher.

Experiments:
Test in all cases: DTP human tumour cell line panel, 48 h
[1] = system: HT-29
[2] = system: SNB-75
[3] = system: SN12C
[4] = system: MDA-MB-231
[5] = system: 786-0
[6] = system: LOX IMVI
[7] = system: CAKI-1
[8] = system: ACHN
[9] = system: UACC-62
[10] = system: M14
[11] = system: TK-10
[12] = system: SW-620
[13] = system: SK-OV-3
[14] = system: SF-268
[15] = system: HCT-15
[16] = system: Hs-578T
[17] = system: PC-3
[18] = system: SNB-19
[19] = system: NCI-H460
[20] = system: SR

| SMILES | GI50 [1] | GI50 [2] | GI50 [3] | GI50 [4] | GI50 [5] | GI50 [6] | GI50 [7] | GI50 [8] | GI50 [9] | GI50 [10] | GI50 [11] | GI50 [12] | GI50 [13] | GI50 [14] | GI50 [15] [µM] | GI50 [16] | GI50 [17] | GI50 [18] | GI50 [19] | GI50 [20] |
| --- | --- | --- | --- | --- | --- | --- | --- | --- | --- | --- | --- | --- | --- | --- | --- | --- | --- | --- | --- | --- |
| CO/C(N)=C(C#N)/N=C/c1ccco1 | > 100 µM (inactive) | > 100 µM (inactive) | > 100 µM (inactive) | > 100 µM (inactive) | > 100 µM (inactive) | > 100 µM (inactive) | > 100 µM (inactive) | > 100 µM (inactive) | > 100 µM (inactive) | > 100 µM (inactive) | > 100 µM (inactive) | > 100 µM (inactive) | > 100 µM (inactive) | > 100 µM (inactive) | > 100 | > 100 µM (inactive) | > 100 µM (inactive) | – | – | – |
| O=S(=O)(O)c1ccc2c(/N=N/c3ccc(Cl)cc3)c(O)ccc2c1 | > 100 µM (inactive) | > 100 µM (inactive) | > 100 µM (inactive) | > 100 µM (inactive) | > 100 µM (inactive) | > 100 µM (inactive) | > 100 µM (inactive) | > 100 µM (inactive) | > 100 µM (inactive) | > 100 µM (inactive) | > 100 µM (inactive) | > 100 µM (inactive) | > 100 µM (inactive) | > 100 µM (inactive) | > 100 | > 100 µM (inactive) | > 100 µM (inactive) | > 100 µM (inactive) | – | – |
| Nc1ccccc1/C=C\c1ccccc1 | > 100 µM (inactive) | > 100 µM (inactive) | > 100 µM (inactive) | – | > 100 µM (inactive) | – | – | > 100 µM (inactive) | > 100 µM (inactive) | > 100 µM (inactive) | > 100 µM (inactive) | > 100 µM (inactive) | > 100 µM (inactive) | > 100 µM (inactive) | > 100 | > 100 µM (inactive) | > 100 µM (inactive) | > 100 µM (inactive) | > 100 µM (inactive) | – |
| Nc1ccc(COC(O)CN2CCCCC2)cc1[N+](=O)[O-] (stereo not drawn) | > 100 µM (inactive) | 70.5 µM (inactive) | > 100 µM (inactive) | > 100 µM (inactive) | > 100 µM (inactive) | – | > 100 µM (inactive) | > 100 µM (inactive) | > 100 µM (inactive) | > 100 µM (inactive) | > 100 µM (inactive) | > 100 µM (inactive) | – | > 100 µM (inactive) | > 100 | – | > 100 µM (inactive) | > 100 µM (inactive) | > 100 µM (inactive) | > 100 µM (inactive) |
| O=C(O)C1CCCN1C(=O)c1cc(Cl)ccn1 (stereo not drawn) | > 100 µM (inactive) | > 100 µM (inactive) | > 100 µM (inactive) | – | > 100 µM (inactive) | > 100 µM (inactive) | > 100 µM (inactive) | > 100 µM (inactive) | > 100 µM (inactive) | > 100 µM (inactive) | > 100 µM (inactive) | > 100 µM (inactive) | – | > 100 µM (inactive) | > 100 | > 100 µM (inactive) | > 100 µM (inactive) | > 100 µM (inactive) | > 100 µM (inactive) | > 100 µM (inactive) |
| CN1CCN(CCCBr)CC1 | > 100 µM (inactive) | > 100 µM (inactive) | > 100 µM (inactive) | > 100 µM (inactive) | > 100 µM (inactive) | > 100 µM (inactive) | – | > 100 µM (inactive) | > 100 µM (inactive) | > 100 µM (inactive) | > 100 µM (inactive) | > 100 µM (inactive) | > 100 µM (inactive) | > 100 µM (inactive) | > 100 | > 100 µM (inactive) | > 100 µM (inactive) | > 100 µM (inactive) | > 100 µM (inactive) | – |
| COc1ccc(C2C(C#N)=C(S)N(C3OC(COC(C)=O)C(OC(C)=O)C(OC(C)=O)C3OC(C)=O)C(c3ccccc3)=C2C(C)=O)cc1 (stereo not drawn) | > 100 µM (inactive) | 18.7 µM (inactive) | > 100 µM (inactive) | > 100 µM (inactive) | > 100 µM (inactive) | > 100 µM (inactive) | > 100 µM (inactive) | > 100 µM (inactive) | 41.8 µM (inactive) | > 100 µM (inactive) | > 100 µM (inactive) | – | – | > 100 µM (inactive) | > 100 | 70.8 µM (inactive) | > 100 µM (inactive) | > 100 µM (inactive) | > 100 µM (inactive) | – |
| CCOc1cc(CC[N+](C)(C)C)c2c(ccc3ccc(OC)c(OC)c32)c1OC | > 100 µM (inactive) | > 100 µM (inactive) | > 100 µM (inactive) | > 100 µM (inactive) | > 100 µM (inactive) | – | > 100 µM (inactive) | > 100 µM (inactive) | > 100 µM (inactive) | > 100 µM (inactive) | – | > 100 µM (inactive) | > 100 µM (inactive) | > 100 µM (inactive) | – | – | > 100 µM (inactive) | > 100 µM (inactive) | – | > 100 µM (inactive) |
| Cn1c2ccc3cc2c(=S)c2cc(ccc21)OCCOCCOCCOCCOCCOCCO3 | > 10 µM (inactive) | > 10 µM (inactive) | > 10 µM (inactive) | – | > 10 µM (inactive) | > 10 µM (inactive) | > 10 µM (inactive) | > 10 µM (inactive) | – | > 10 µM (inactive) | > 10 µM (inactive) | > 10 µM (inactive) | > 10 µM (inactive) | > 10 µM (inactive) | > 10 | > 10 µM (inactive) | > 10 µM (inactive) | > 10 µM (inactive) | > 10 µM (inactive) | > 10 µM (inactive) |
| Nc1ccn(C2OC(COP(=O)(O)OCC3OC(n4cc(F)c(=O)[nH]c4=O)CC3O)C(O)C2O)c(=O)n1 (stereo not drawn) | 4.3 µM (inactive) | > 48.3 µM (inactive) | 3.05 µM (inactive) | – | 1.33 µM (inactive) | 0.0353 µM (active) | 0.508 µM (active) | 0.0447 µM (active) | 0.0925 µM (active) | 0.183 µM (active) | – | > 100 µM (inactive) | 26.7 µM (inactive) | < 0.01 µM (active) | 5.75 | > 100 µM (inactive) | > 100 µM (inactive) | 0.585 µM (active) | < 0.01 µM (active) | < 0.01 µM (active) |
| Nc1nc(N)c2ncn(Cc3c(Cl)cccc3Cl)c2n1 | > 100 µM (inactive) | 1.6 µM (inactive) | > 100 µM (inactive) | > 100 µM (inactive) | > 100 µM (inactive) | > 100 µM (inactive) | > 100 µM (inactive) | > 100 µM (inactive) | > 100 µM (inactive) | > 100 µM (inactive) | > 100 µM (inactive) | > 100 µM (inactive) | > 100 µM (inactive) | > 100 µM (inactive) | > 100 | > 100 µM (inactive) | > 100 µM (inactive) | > 100 µM (inactive) | – | – |
| CC(C)(C)OC(=O)N1C(=O)OC[C@@H]2C=C[C@@H]21 | > 100 µM (inactive) | – | > 100 µM (inactive) | > 100 µM (inactive) | > 100 µM (inactive) | > 100 µM (inactive) | > 100 µM (inactive) | > 100 µM (inactive) | > 100 µM (inactive) | > 100 µM (inactive) | > 100 µM (inactive) | > 100 µM (inactive) | > 100 µM (inactive) | > 100 µM (inactive) | > 100 | > 100 µM (inactive) | > 100 µM (inactive) | > 100 µM (inactive) | > 100 µM (inactive) | – |
